The numbers were not newly measured in US10918604B2, “Solid oral dosage forms of eslicarbazepine” (Jubilant Generics Limited, priority 2015, dated 2021), which cites them from elsewhere.

For the data set the following is noted: reported in background.

With `CC(=O)O[C@H]1Cc2ccccc2N(C(N)=O)c2ccccc21` [Eslicarbazepine acetate, (S)-10-acetoxy-10,11-dihydro-5H-dibenzo[b,f]azepine-5-carboxamide], the solubility in water result is “poorly soluble in water”.
